Reference: PMC10082216 (Nature Communications, 2023)
Where “and” joins values, the source holds several entries; their conditions need not be identical. Equal values may be shown once. Entries after “also recorded” stand apart in the source; their conditions may differ.

System: stage V gametocytes of P. falciparum (3D7 pULG8-GFP strain)
Assay: Post-screening validation with 96-well plate microsphiltration (Paris)
Format: cell-based, Plasmodium falciparum
Conditions: for confirmation of stiffening activity upon post-screening: DRA, 3D7, Paris laboratory; for retention 24 h after drug washout: 24 h exposure, remeasured additional 24 h after washout; for Normalized retention rate: gametocytes exposed 24 h
Method: Plasmodium falciparum NF54 strain parasites (used for screening campaign) were cultured at 4% hematocrit in RBCs from informed blood donors (blood group A) as previously described. Parasites were taken from the -80 °C freezer, then rapidly melt for 1 minute in a 37 °C water bath. A saline solution was gently added to avoid the lysis. Firstly, NaCl dissolved at 12% in distilled water (1/5 of the volume measured in the cryovial) and then NaCl dissolved at 1.6% (9 times the cryovial’s volume). After that, fresh RBCs were added to allow parasites re-growth. Infected RBCs were kept in RPMI medium (Sigma-Aldrich, cat. no. R4130), supplemented with 10% of decomplemented human serum, hypoxanthine 50 mg/l (Sigma-Aldrich, cat. no. H9636). Biobank of Castilla y Leon and Centro de Transfusiones de Madrid as providers of human red blood cell concentrates. The production of gametocytes was induced from a 0.5% ring-stage parasitemia (day 0). Medium was changed daily to induce gametocytes differentiation, as previously described. At day 17, gametocytes were concentrated using a density gradient medium (NycoPrep 1.077, Progen cat. no. 1114550)[27]. Parasitemia was adjusted by FACS (SYBR-Green and MitoTracker double staining, 3–5% targeted). Hematocrit was adjusted to 0.5% by adding fresh RBCs and controlled by manual counting in a Neubauer chamber (Celeromics, cat. no. 717810). Finally, the gametocyte suspension was poured (45 μL/well) into the compound-containing 384-well microplate, then incubated 24 hours both for the screening campaign and the dose-response analysis. Both asexual and sexual stages were cultivated in RPMI 1640 supplemented with 25 mM HEPES, 50 mg/L hypoxanthine, 50 μg/mL gentami-cin, 10% pooled heat-inactivated human serum (A^+). Each batch of serum was obtained by pooling 10 serum bags from different donors. Serum was kept at −20 °C and thawed in a warmed water bath before use. A new serum batch was prepared when the previous was completed. For dose-response analysis and microfluidics, both the 3D7-pULG8-GFP[67] and the NF54 strain (BEI Resources, cat. no. MRA-1000) were tested. The 3D7 strain was cultivated as described above with the addition of 0.2% NaHCO3 and 2.5 nM of WR99210 for both asexual and sexual stages.
Both fixed-dose and dose-response analyses were performed according to a second protocol (Paris laboratory) to validate the selected hits from primary screening. Briefly, the gametocyte suspension was loaded into a 96-well empty plate (200 µL/well). For each dose-response, first, well volume was doubled and compound was added to obtain 10 µM final concentration. For the dose-response analysis, the gametocyte suspension was then manually serially diluted 1/2 for 12 points, obtaining 5 nM as the lower concentration. The same operation was done with DMSO to have a negative control. After 24 hours of incubation at 37 °C, gametocyte suspensions were loaded into a 96-well filtration plate[28] and microsphiltration was manually performed at 37 °C. Up and downstream samples were incubated for 30 min with Hoechst 33342 nuclear staining (1/1000 diluted in PBS, Thermo Fischer cat. no. H3570), washed, resuspended in 200 µL of PBS and then loaded into an empty 96-well plate before FACSCanto (BD Biosciences, Franklin Lakes, New Jersey, USA) quantification. Data from cytofluorimetry were analyzed with FlowJo V12. As per previously described experiences with this technique, to avoid the risk of microbead layers saturation, a microsphiltration experiment was repeated when the upstream gametocytemia exceeded 10%[25],[69].

COc1cc2c(cc1OC)[C@@H]1Cc3ccc(OC)c(OC)c3CN1CC2 [(S)-(-)-Tetrahydropalmatine]
confirmation of stiffening activity upon post-screening (listed as L-THP): not fully confirmed; also recorded: did not confirm

C[C@H]1Cc2c([nH]c3cc(Cl)c(F)cc23)[C@@]2(N1)C(=O)Nc1ccc(Cl)cc12 [NITD609, cipargamin]
retention 24 h after drug washout: 23% | confirmation of stiffening activity upon post-screening: confirmed | Normalized retention rate: 66% | Retention rates (single wells, Figure 4b) (gametocytes exposed to drugs 24 h): 36.4701 and 62.0956 and 72.239

CNC(=O)N1C[C@@H](C)N(c2ccc(C(=O)Nc3ccc(-c4ccc(-c5c[nH]c([C@@H]6CCCN6C(=O)[C@@H](NC(=O)OC)C(C)C)n5)cc4)c(OC(F)(F)F)c3)cn2)C[C@@H]1C [TD-6450]
retention 24 h after drug washout: 43% | confirmation of stiffening activity upon post-screening: confirmed | IC50 (Plasmodium falciparum, 3D7, 96-well, five independent experiments, read-out: stiffening IC50, median (±SD)): 0.28 ± 0.58 µM | Normalized retention rate: 27% | persistence of stiffening activity after drug washout (mature gametocytes): ≥ 24 h
